From US20240325370A1, “THERAPEUTIC REGIMENS OF A DEGRADER OF BRD9” (FOGHORN THERAPEUTICS INC., priority 2021, published 2024) come the findings set out here.

Series [1] has as its system synovial sarcoma cell lines (SYO1, Yamato, HS-SY-II, and ASKA). The experiment in a line: Growth of synovial sarcoma cell lines (IncuCyte confluency, crystal violet, colonies). The series is classed as cell-based, human. Particulars: 1 μM or indicated concentrations. The method, then:
(§1) Cells were treated with DMSO or the BRD9 degrader, Compound 1, at indicated concentrations, and proliferation was monitored from day 7 to day 14 by measuring confluency over time using an IncuCyte live cell analysis system (FIG. 4). Growth medium and compounds were refreshed every 3-4 days.
(§2) Cells were seeded into 12-well plates and treated with DMSO, 1 μM BRD9 inhibitor, Compound 2 (also known as BI-7273, see Martin et al, J Med Chem. 59 (10): 4462-4475 (2016); see structure of compound 2 below), or 1 μM BRD9 degrader, Compound 1.
(§3) The number of cells was optimized for each cell line. Growth medium and compounds were refreshed every 3-5 days. SYO1, Yamato, A549, 293T and HS-SY-II cells were fixed and stained at day 11. ASKA cells were fixed and stained at day 23. Staining was done by incubation with crystal violet solution (0.5 g Crystal Violet, 27 ml 37% Formaldehyde, 100 mL 10×PBS, 10 mL Methanol, 863 dH20 to 1 L) for 30 min followed by 3× washes with water and drying the plates for at least 24 h at room temperature. Subsequently plates were scanned on an Odyssey CLx Imaging system (FIG. 5).
(§4) Cells were seeded into 96-well ultra-low cluster plate (Costar, #7007) in 200 μL complete media and treated at day 2 with DMSO, Staurosporin, or BRD9 degrader, Compound 1, at indicated doses (FIG. 2C). Media and compounds were changed every 5 d and cell colonies were imaged at day 14.

Series [2] deals with non-synovial control cancer cell lines (293T, A549, G401). The experiment in a line: Growth of non-synovial control cancer cell lines. The format is cell-based. The method, then:
as §1, §2, §3, §4

Series [3] relates to synovial sarcoma cell lines (SYO1, HS-SY-II, and ASKA). The experiment in a line: Crystal violet growth assay, synovial sarcoma cell lines, day 14. The format is cell-based, human. As to conditions: treated daily. The method, then:
(§5) Procedure: Cells were seeded into 6-well or 12-well plates and were treated daily with a BRD9 degrader (Compound 1), a bromo-domain BRD9 binder (Compound 2), E3 ligase binder (lenalidomide), DMSO, or staurosporin (positive control for cell killing), at indicated concentrations. The number of cells was optimized for each cell line. Growth media was refreshed every 5 days. By day 14, medium was removed, cells were washed with PBS, and stained using 500 μL of 0.005% (w/v) crystal violet solution in 25% (v/v) methanol for at least 1 hour at room temperature. Subsequently plates were scanned on an Odyssey CLx Imaging system.

The test system of series [4] is non-synovial control cancer cell lines (RD, HCT116, and Calu6). The series can be described thus: Crystal violet growth assay, non-synovial control cancer cell lines, day 14. The series is classed as cell-based. Particulars: treated daily. The method, then: as §5
In series [5] the test system is SYO1 cells. The series can be described thus: Cell cycle analysis (Click-iT Plus EdU Flow Cytometry Assay). The series is classed as cell-based, human. As to conditions: 200 nM or 1 μM for 8 or 13 days; compared to DMSO and lenalidomide. The method, then: (§6) Procedure: SYO1 cells were treated for 8 or 13 days with DMSO, a BRD9 degrader (Compound 1) at 200 nM or 1 μM, or an E3 ligase binder (lenalidomide) at 200 nM. Compounds were refreshed every 5 days. Cell cycle analysis was performed using the Click-iTT Plus EdU Flow Cytometry Assay (Invitrogen). The apoptosis assay was performed using the Annexin V-FITC Apoptosis Detection Kit (Sigma A9210). Assays were performed according to the manufacturer's protocol.

The subject of series [6] is SYO1 cells. The series can be described thus: Apoptosis assay (Annexin V-FITC Apoptosis Detection Kit). The format is cell-based, human. Particulars: 8 days; compared to DMSO controls. Here is the method:
as §6

The test system of series [7] is ASKA synovial sarcoma xenografts. The experiment in a line: ASKA synovial sarcoma xenograft efficacy. The format is in vivo. As to conditions: for Tumor Growth (%) on Day 21 / Tumor Size (mm^3) on Day 21: Mean ± SEM; for T/C (%) / TGI (%): Day 21. The method, then: A study was conducted to examine anti-tumor efficacy of compound S-D1 with BIW IV dosing of the racemate, compound D1, for 3 weeks utilizing a second xenograft model of human synovial sarcoma, ASKA. Vehicle (0.5% HPMC, 0.1% Tween 80 in water, pH 1.3 to 1.5), administered orally, was used as the general comparator for all test article responses (i.e., tumor growth and body weight changes). Pazopanib and ifosfamide, two agents currently used in clinic to treat synovial sarcoma patients were compared to compound D1 treatment alone. Pazopanib was administered orally at 40 mg/kg QD and ifosfamide was given IV at 80 mg/kg QD for the first 3 days (Days 0, 1, and 2) in the 3-week treatment period, mimicking the equivalent treatment regimens for both drugs in human patients.

[8] abbreviates: 80 mg/kg QD IV Day 0 to Day 2, ASKA xenograft.
[9] abbreviates: 40 mg/kg QD oral 3 weeks, ASKA xenograft.

“Also recorded” adds a separate entry of the source.

In the case of `COc1cc(-c2cn(C)c(=O)c3cnccc23)cc(OC)c1CN(C)CC(=O)NCCOCCOCCNc1cccc2c1C(=O)N(C1CCC(=O)NC1=O)C2=O` (centres unmarked) [Compound 1], the “inhibition of the growth of the cells” value in series [1] was “inhibition of the growth of the cells”; in series [2], “does not result in inhibition of the growth”; in series [3], “inhibition of the growth of the cells; also recorded: most significant growth inhibition”; in series [4] it was “did not result in inhibition of the growth”. In addition, in the series with SYO1 cells [5], the “numbers of cells in the S-phase of the cell cycle” value is recorded as “reduced numbers of cells in the S-phase”. The “numbers of early- and late-apoptotic cells” value with SYO1 cells [6] was “increased numbers of early- and late-apoptotic cells”.

As for `COc1cc(-c2cn(C)c(=O)c3cnccc23)cc(OC)c1CN(C)C` [Compound 2], the “inhibition of the growth of the cells” value in series [1] is “inhibition of the growth of the cells”; in series [2] it was “does not result in inhibition of the growth”; in series [3] it was “inhibition of the growth of the cells”; in series [4] it was “did not result in inhibition of the growth”.

Regarding `O=P1(NCCCl)OCCCN1CCCl` (centres unmarked) [Ifosfamide, reference compound], in series [7] (setting [8]), the “Tumor Growth (%) on Day 21” value came out at 820 ± 56% and the “Tumor Size (mm^3) on Day 21” value is recorded as 1164 ± 126 mm^3. In series [7] (80 mg/kg QD IV Day 0 to Day 2), the “T/C (%)” value is listed as 67.2% and the “TGI (%)” value is 32.8%. Also, the “tolerability (body weight)” value in series [7] (ASKA xenograft, 3-week treatment period) was “transient body weight loss occurred but recovered within a few days”. Moreover, the “tumor growth inhibition achieved” value in series [7] (pazopanib 40 mg/kg QD oral, ifosfamide 80 mg/kg QD IV Days 0, 1, 2, ASKA xenograft) is on record as “partial TGI”.

For the compound `Cc1ccc(Nc2nccc(N(C)c3ccc4c(C)n(C)nc4c3)n2)cc1S(N)(=O)=O` [Pazopanib, reference compound], in series [7] (setting [9]), the “Tumor Growth (%) on Day 21” value came to 480 ± 33% and the “Tumor Size (mm^3) on Day 21” value amounted to 537 ± 56 mm^3. Besides, in series [7] (40 mg/kg QD oral 3 weeks), the “T/C (%)” value was 39.4% and the “TGI (%)” value was found to be 60.6%.
